From ChEMBL document CHEMBL1133444, “N-cycloalkyl derivatives of adenosine and 1-deazaadenosine as agonists and partial agonists of the A(1) adenosine receptor” (J Med Chem, 2000)

Target: T1, Adenosine receptor A1 (Rattus norvegicus) (UniProt P25099)
T1 sequence (whole entry): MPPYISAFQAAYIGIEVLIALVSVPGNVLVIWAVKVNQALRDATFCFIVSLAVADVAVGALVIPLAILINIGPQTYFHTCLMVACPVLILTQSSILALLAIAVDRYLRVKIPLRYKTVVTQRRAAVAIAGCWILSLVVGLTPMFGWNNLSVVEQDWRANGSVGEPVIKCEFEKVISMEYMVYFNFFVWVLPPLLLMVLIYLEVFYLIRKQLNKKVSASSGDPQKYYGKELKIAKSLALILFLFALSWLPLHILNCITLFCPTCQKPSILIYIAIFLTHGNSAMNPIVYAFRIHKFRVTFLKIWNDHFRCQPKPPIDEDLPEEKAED
Test: Percent relative intrinsic activity with reference to CCPA
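Wherever KH is given: displacement of [3H]DPCPX binding from rat cortical membranes in the absence of GTP, KH giving affinity for the high-affinity receptor state.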
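Wherever KL is given: displacement of [3H]DPCPX from rat cortical membranes, assayed without GTP, with KL giving affinity for the low-affinity state of the receptor.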

Structure (SMILES) | RIA [%]
OC[C@H]1O[C@@H](n2cnc3c(NC4CC4)nc(Cl)nc32)C[C@@H]1O | 20.8

Target: T2, Adenosine receptor A1 (Rattus norvegicus, UniProt P25099)
T2 sequence (P25099 whole entry): T1 sequence (whole entry)
Test: Binding affinity for adenosine A1 receptor was assayed by displacement of [3H]DPCPX from rat cortical membranes.
Assay type: cell membranes, Membrane

Structure (SMILES) | Ki [nM]
OC[C@H]1O[C@@H](n2cnc3c(NC4CCC4)nc(Cl)nc32)[C@H](O)[C@@H]1O | 5.3
OC[C@H]1OC(n2cnc3c(NC4CCCCCCC4)nc(Cl)nc32)[C@H](O)[C@@H]1O (stereo not given in full) | 122
OC[C@H]1O[C@@H](n2cnc3c(NC4CC4)ccnc32)[C@H](O)[C@@H]1O | 326
OC[C@H]1O[C@@H](n2cnc3c(NC4CCCCCC4)ncnc32)[C@H](O)[C@@H]1O | 19.6
OC[C@H]1O[C@@H](n2cnc3c(NC4CCCCC4)cc(Cl)nc32)[C@H](O)[C@@H]1O | 268
OC[C@H]1O[C@@H](n2cnc3c(NC4CCCCC4)nc(Cl)nc32)[C@H](O)[C@@H]1O | 31.7
OC[C@H]1OC(n2cnc3c(NC4CCCCCC4)nc(Cl)nc32)[C@H](O)[C@@H]1O (stereo not given in full) | 37.9
OC[C@H]1OC(n2cnc3c(NC4CCCCCCC4)cc(Cl)nc32)[C@H](O)[C@@H]1O (stereo not given in full) | 595
OC[C@H]1OC(n2cnc3c(NC4CCCCCC4)ccnc32)[C@H](O)[C@@H]1O (stereo not given in full) | 364
OC[C@H]1O[C@@H](n2cnc3c(NC4CCC4)ncnc32)[C@H](O)[C@@H]1O | 3.92
OC[C@H]1O[C@@H](n2cnc3c(NC4CCCC4)ccnc32)[C@H](O)[C@@H]1O | 100
OC[C@H]1O[C@@H](n2cnc3c(NC4CCCCC4)ccnc32)[C@H](O)[C@@H]1O | 169
OC[C@H]1O[C@@H](n2cnc3c(NC4CC4)cc(Cl)nc32)[C@H](O)[C@@H]1O | 151
OC[C@H]1O[C@@H](n2cnc3c(NC4CCC4)ccnc32)[C@H](O)[C@@H]1O | 109
OC[C@H]1O[C@@H](n2cnc3c(NC4CCC4)cc(Cl)nc32)[C@H](O)[C@@H]1O | 41
OC[C@H]1O[C@@H](n2cnc3c(NC4CCCCCC4)cc(Cl)nc32)[C@@H](O)C1O (stereo not given in full) | 247

Target: T2, Adenosine receptor A1
Test: not given

Structure (SMILES) | Ki [nM]
OC[C@H]1O[C@@H](n2cnc3c(NC4CC4)nc(Cl)nc32)C[C@@H]1O | 14300

Target: T2, Adenosine receptor A1
Test: Binding affinity for adenosine A1 receptor, was assessed from the ability to displace [3H]-DPCPX (without GTP) from rat cortical membranes.

Structure (SMILES) | Ki [nM]
OC[C@H]1O[C@@H](n2cnc3c(NC4CC4)nc(Cl)nc32)C[C@@H]1O | 724

Target: T2, Adenosine receptor A1
Test: Stimulation of [35S]GTP-gamma-S, binding to rat brain membranes by adenosine A1 receptor activation
Assay type: functional, cell membranes, Membrane

Structure (SMILES) | EC50 [nM]
OC[C@H]1O[C@@H](n2cnc3c(NC4CC4)ccnc32)[C@H](O)[C@@H]1O | 1530
OC[C@H]1O[C@@H](n2cnc3c(NC4CCCCCC4)ncnc32)[C@H](O)[C@@H]1O | 86.4
OC[C@H]1O[C@@H](n2cnc3c(NC4CC4)nc(Cl)nc32)C[C@@H]1O | 6180
OC[C@H]1OC(n2cnc3c(NC4CCCCCC4)nc(Cl)nc32)[C@H](O)[C@@H]1O (stereo not given in full) | 431
OC[C@H]1OC(n2cnc3c(NC4CCCCCC4)ccnc32)[C@H](O)[C@@H]1O (stereo not given in full) | 6360
OC[C@H]1O[C@@H](n2cnc3c(NC4CCCC4)ccnc32)[C@H](O)[C@@H]1O | 475
OC[C@H]1O[C@@H](n2cnc3c(NC4CC4)cc(Cl)nc32)[C@H](O)[C@@H]1O | 704
OC[C@H]1O[C@@H](n2cnc3c(NC4CCCCCC4)cc(Cl)nc32)[C@@H](O)C1O (stereo not given in full) | 6580

Target: T1, Adenosine receptor A1 (Rattus norvegicus)
Test: not given

Structure (SMILES) | KH [nM]
OC[C@H]1O[C@@H](n2cnc3c(NC4CC4)nc(Cl)nc32)C[C@@H]1O | 115

Target: T1, Adenosine receptor A1 (Rattus norvegicus)
Test: not given
Remark: another data set of the same source

Structure (SMILES) | KL [µM]
OC[C@H]1O[C@@H](n2cnc3c(NC4CC4)nc(Cl)nc32)C[C@@H]1O | 6.03

Target: Adenosine receptor A2a (Rattus norvegicus, UniProt P30543)
Sequence (P30543 whole entry): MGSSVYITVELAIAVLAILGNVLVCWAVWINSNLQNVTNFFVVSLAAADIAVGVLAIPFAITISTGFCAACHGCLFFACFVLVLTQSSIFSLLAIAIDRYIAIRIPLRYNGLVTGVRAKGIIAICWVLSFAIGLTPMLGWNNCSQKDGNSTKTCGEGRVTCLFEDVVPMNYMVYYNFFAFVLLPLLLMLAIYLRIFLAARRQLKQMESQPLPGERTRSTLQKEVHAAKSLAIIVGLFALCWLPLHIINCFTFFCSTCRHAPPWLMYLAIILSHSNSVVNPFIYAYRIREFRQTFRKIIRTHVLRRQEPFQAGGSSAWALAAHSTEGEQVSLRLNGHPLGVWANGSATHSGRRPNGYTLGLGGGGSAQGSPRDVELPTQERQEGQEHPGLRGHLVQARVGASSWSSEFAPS
Test: Binding affinity for adenosine A2A receptor was determined by displacement of [3H]CGS 21680 from rat striatal membranes.

Structure (SMILES) | Ki [nM]
OC[C@H]1O[C@@H](n2cnc3c(NC4CCC4)nc(Cl)nc32)[C@H](O)[C@@H]1O | 460
OC[C@H]1OC(n2cnc3c(NC4CCCCCCC4)nc(Cl)nc32)[C@H](O)[C@@H]1O (stereo not given in full) | 4230
OC[C@H]1O[C@@H](n2cnc3c(NC4CC4)ccnc32)[C@H](O)[C@@H]1O | 16400
OC[C@H]1O[C@@H](n2cnc3c(NC4CCCCCC4)ncnc32)[C@H](O)[C@@H]1O | 3150
OC[C@H]1O[C@@H](n2cnc3c(NC4CCCCC4)cc(Cl)nc32)[C@H](O)[C@@H]1O | 5210
OC[C@H]1O[C@@H](n2cnc3c(NC4CCCCC4)nc(Cl)nc32)[C@H](O)[C@@H]1O | 590
OC[C@H]1OC(n2cnc3c(NC4CCCCCC4)nc(Cl)nc32)[C@H](O)[C@@H]1O (stereo not given in full) | 1100
OC[C@H]1OC(n2cnc3c(NC4CCCCCCC4)cc(Cl)nc32)[C@H](O)[C@@H]1O (stereo not given in full) | 20000
OC[C@H]1OC(n2cnc3c(NC4CCCCCC4)ccnc32)[C@H](O)[C@@H]1O (stereo not given in full) | 9200
OC[C@H]1O[C@@H](n2cnc3c(NC4CCC4)ncnc32)[C@H](O)[C@@H]1O | 420
OC[C@H]1O[C@@H](n2cnc3c(NC4CCCC4)ccnc32)[C@H](O)[C@@H]1O | 10100
OC[C@H]1O[C@@H](n2cnc3c(NC4CCCCC4)ccnc32)[C@H](O)[C@@H]1O | 5120
OC[C@H]1O[C@@H](n2cnc3c(NC4CC4)cc(Cl)nc32)[C@H](O)[C@@H]1O | 9640
OC[C@H]1O[C@@H](n2cnc3c(NC4CCC4)ccnc32)[C@H](O)[C@@H]1O | 6550
OC[C@H]1O[C@@H](n2cnc3c(NC4CCC4)cc(Cl)nc32)[C@H](O)[C@@H]1O | 3110
OC[C@H]1O[C@@H](n2cnc3c(NC4CCCCCC4)cc(Cl)nc32)[C@@H](O)C1O (stereo not given in full) | 4870
